Measurements published in patent US20220072015A1, “Methods of Inhibiting Pathological Angiogenesis” (Unity Biotechnology, Inc., priority 2017, published 2022).

Assays:
[1] = test system: senescent fibroblasts (SnCs), IMR90 cells; assay: Senolytic activity: killing irradiated senescent IMR90 fibroblasts vs replicating or quiescent fibroblasts (CellTiter-Glo); assay type: cell-based, human; conditions: for Best SI: specificity for senescent cells vs replicating or quiescent fibroblasts, 1.0 = non-specific; for senolytic activity, potency: result in words
Source text: Human fibroblast IMR90 cells can be obtained from the American Type Culture Collection (ATCC®) with the designation CCL-186. The cells are maintained at <75% confluency in DMEM containing FBS and Pen/Strep in an atmosphere of 3% O2, 10% CO2, and ˜95% humidity. The cells are divided into three groups: irradiated cells (cultured for 14 days after irradiation prior to use), proliferating normal cells (cultured at low density for one day prior to use), and quiescent cells (cultured at high density for four day prior to use).
On day 0, the irradiated cells are prepared as follows. IMR90 cells are washed, placed in T175 flasks at a density of 50,000 cells per mL, and irradiated at 10-15 Gy. Following irradiation, the cells are plated at 100 μL in 96-well plates. On days 1, 3, 6, 10, and 13, the medium in each well is aspirated and replaced with fresh medium.
On day 10, the quiescent healthy cells are prepared as follows. IMR90 cells are washed, combined with 3 mL of TrypLE trypsin-containing reagent (Thermofisher Scientific, Waltham, Mass.) and cultured for 5 min until the cells have rounded up and begin to detach from the plate. Cells are dispersed, counted, and prepared in medium at a concentration of 50,000 cells per mL. 100 μL of the cells is plated in each well of a 96-well plate. Medium is changed on day 13.
On day 13, the proliferating healthy cell population is prepared as follows. Healthy IMR90 cells are washed, combined with 3 mL of TrypLE and cultured for 5 minutes until the cells have rounded up and begin to detach from the plate. Cells are dispersed, counted, and prepared in medium at a concentration of 25,000 cells per mL. 100 μL of the cells is plated in each well of a 96-well plate.
On day 14, test Bcl-2 inhibitors or MDM2 inhibitors are combined with the cells as follows. A DMSO dilution series of each test compound is prepared at 200 times the final desired concentration in a 96-well PCR plate. Immediately before use, the DMSO stocks are diluted 1:200 into prewarmed complete medium. Medium is aspirated from the cells in each well, and 100 μL/well of the compound containing medium is added.
Candidate senolytic agents for testing are cultured with the cells for 6 days, replacing the culture medium with fresh medium and the same compound concentration on day 17. Bcl-2 inhibitors like 001967 are cultured with the cells for 3 days. The assay system uses the properties of a thermostable luciferase to enable reaction conditions that generate a stable luminescent signal while simultaneously inhibiting endogenous ATPase released during cell lysis. At the end of the culture period, 100 μL of CellTiter-Glo® reagent (Promega Corp., Madison, Wis.) is added to each of the wells. The cell plates are placed for 30 seconds on an orbital shaker, and luminescence is measured.
Furthermore, even if the compound is potent, it would not be suitable for use as a therapeutic unless it preferentially kills senescent cells with a high degree of selectivity. Accordingly, compounds in the library showing high Bcl binding affinity were further screened for their ability to kill irradiated fibroblasts, in comparison with replicating fibroblasts or fibroblasts that were quiescent (due to confluence) but not senescent.

Bcl isoforms = assay: Binding affinity for the Bcl isoforms; conditions: result in words
Source text: The ability of candidate compounds to inhibit Bcl-2 and Bcl-xL activity can be measured on the molecular level by direct binding. This assay uses a homogenous assay technology based on oxygen channeling that is marketed by PerkinElmer Inc., Waltham, Mass.: see Eglin et al., Current Chemical Genomics, 2008, 1, 2-10. The test compound is combined with the target Bcl protein and a peptide representing the corresponding cognate ligand, labeled with biotin. The mixture is then combined with streptavidin bearing luminescent donor beads and luminescent acceptor beads, which proportionally reduces luminescence if the compound has inhibited the peptide from binding to the Bcl protein.
Bcl-2, Bcl-xL and Bcl-w are available from Sigma-Aldrich Co., St. Louis, Mo. Biotinylated BIM peptide (ligand for Bcl-2) and BAD peptide (ligand for Bcl-xL) are described in US 2016/0038503 A1. AlphaScreen® Streptavidin donor beads and Anti-6×His AlphaLISA® acceptor beads are available from PerkinElmer.
To conduct the assay, a 1:4 dilution series of the compound is prepared in DMSO, and then diluted 1:100 in assay buffer. In a 96-well PCR plate, the following are combined in order: 10 μL peptide (120 nM BIM or […]), 10 μL test compound, and 10 μL Bcl protein (0.8 nM Bcl-2/W or 0.4 nM Bcl-XL). The assay plate is incubated in the dark at room temperature for 24 h. The next day, donor beads and acceptor beads are combined, and 5 μL is added to each well. After incubating in the dark for 30 minute, luminescence is measured using a plate reader, and the affinity or degree of inhibition by each test compound is determined.

Row | Structure (SMILES) | Best SI [1] | binding affinities (Ki) for the Bcl isoforms (Bcl isoforms) | senolytic activity, potency [1]
1 | CCn1c(C)c(C(=O)O)c(-c2cccc(N3CCN(c4ccc(NS(=O)(=O)c5ccc(N[C@H](CCN6CCC(O)CC6)CSc6ccccc6)c(S(=O)(=O)C(F)(F)F)c5)cc4)CC3)c2)c1-c1ccc(Cl)cc1 [BM-957] | 11.7 | – | –
2 | Cc1c(C(=O)O)c(-c2cccc(N3CCN(c4ccc(NS(=O)(=O)c5ccc(N[C@H](CCN6CCC(O)CC6)CSc6ccccc6)c(S(=O)(=O)C(F)(F)F)c5)cc4)CC3)c2)c(-c2ccc(Cl)cc2)n1C(C)C [BM-962] | 18.5 | – | –
3 | CCn1c(C)c(S(C)(=O)=O)c(-c2cc(F)cc(N3CCN(c4ccc(NS(=O)(=O)c5ccc(N[C@H](CCN6CCC(O)CC6)CSc6ccccc6)c(S(=O)(=O)C(F)(F)F)c5)cc4)CC3)c2)c1-c1ccc(F)cc1 [BM-1192] | 60.0 | – | –
4 | Cc1c(S(C)(=O)=O)c(-c2cc(F)cc(N3CCN(c4ccc(NS(=O)(=O)c5ccc(N[C@H](CCN6CCC(O)CC6)CSc6ccccc6)c(S(=O)(=O)C(F)(F)F)c5)cc4)CC3)c2)c(-c2ccc(F)cc2)n1C(C)C [BM-1195] | 128.7 | nanomole to picomole range | potent in the nanomole range
5 | Cc1c(S(C)(=O)=O)c(-c2cc(F)cc(N3CCN(c4ccc(NS(=O)(=O)c5ccc(N[C@H](CCN6CCC(O)CC6)CSc6ccccc6)c(S(=O)(=O)C(F)(F)F)c5)cc4)CC3)c2)c(-c2ccc(Cl)cc2)n1C(C)C [BM-1197] | 366.7 | nanomole to picomole range | potent in the nanomole range
6 | Cc1c(S(C)(=O)=O)c(-c2cc(F)cc(N3CCN(c4ccc(NS(=O)(=O)c5ccc(N[C@H](CCN6CCC(C(=O)O)CC6)CSc6ccccc6)c(S(=O)(=O)C(F)(F)F)c5)cc4)CC3)c2)c(-c2ccc(Cl)cc2)n1C(C)C [BM-1244] | 66.7 | nanomole to picomole range | –
